What is called Ki is a measure of affinity in units of concentration, obtained from inhibition or displacement. High values mean lower affinity, low ones higher affinity.

This note sets out measurements from patent publication US9914732B2, “Diazabicyclo[4.3.1]decane derivatives for treatment of psychiatric disorders” (Max-Planck-Gesellschaft zur Forderung der Wissenschaften …, priority 2014, dated 2018).

One experiment concerns the target T1, FKBP52 (Homo sapiens, UniProt Q02790).
T1 sequence (Q02790 50-138 limits assumed): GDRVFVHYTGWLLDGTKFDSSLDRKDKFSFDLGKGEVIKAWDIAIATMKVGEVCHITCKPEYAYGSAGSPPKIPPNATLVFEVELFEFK
The experiment can be described thus: Fluorescence polarization (FP) assay, binding to the FK506-binding domain of FKBP52. To be noted: FK506-binding domain of FKBP52 (FKBP52FK1), competition with fluorescent ligand 2b. The protocol: (§1) In the present invention, in vitro fluorescence polarization assays with the compounds of the general formula (I) were performed to determine the binding affinities to FKBP51 and FKBP52 or to the isolated FK506-binding domains of FKBP51 and FKBP52 ([…]). Binding to the isolated FK506-binding domains is reliably indicative of binding to the full length proteins. The affinities for the isolated FK506-binding domains and for full-length FKBP51 or FKBP52 are the same for all compounds tested so far (Kozany et al, ChemBioChem 2009, 10, 1402-1410).
(§2) Example 11: Fluorescence Polarization (FP) Assays
(§3) In-vitro fluorescence polarization assays were performed to determine the binding affinities for FKBP51 and 52 according to a literature procedure (Kozany, C.; Marz, A.; Kress, C.; Hausch, F., Fluorescent probes to characterise FK506-binding proteins. Chembiochem 2009, 10, (8), 1402-10).
(§4) For fluorescence polarization assays the fluorescent ligand 2b was dissolved in HEPES (20 mm, pH 8), Triton-X100 (0.01%), at double the concentration required for the final sample. The target protein was also diluted in this assay buffer at double the highest concentration required for the final sample. This protein stock was used for a 1:1 serial dilution.
(§5) The fluorescent ligand 2b was diluted in assay buffer to a concentration double the final concentration (20 nM 2b). The inventive compound was dissolved in DMSO to reach a 100-times concentrated stock solution. This was used for a 1:1 serial dilution in DMSO. Every sample of this serial dilution was diluted by a factor of 50 in assay buffer supplemented with ligand 2b to achieve a 2× concentrated mixture of ligand 2b and the inventive compound. To this competitive ligand double the protein concentration for 2b assay: FKBP51FK1 560 nM (2×280 nM) or FKBP52FK1 800 nM (2×400 nM) diluted in assay buffer was added.
(§6) The samples were transferred to black 384-well assay plates (No.: 3575; Corning Life Sciences). After incubation at room temperature for 30 min the fluorescence anisotropy was measured (GENios Pro, Tecan, Männedorf, Switzerland) by using an excitation filters of 485/20 nm and emission filters of 535/25 nm. The binding assays were performed in duplicates in the plate format.
(§7) The competition curves were analyzed by using SigmaPlot9. Data were fitted to a four parameter logistic curve to deduce the IC50 values. For the analysis of K1 values, data were fitted to the following equation (Z. X. Wang, FEBS Lett. 1995, 360, 111-114). A=(Amax−Amin)/[L]t×(([L]t×((2×((Klig+Kcomp+[L]t+[I]t−[R]t)^2−3×(Kcomp×([L]t−[R]t)+Klig×([I]t−[R]t)+[…]))^0.5×COS(ARCCOS((−2×(Klig+Kcomp+[L]t+[I]t−[R]t)^3+9×(Klig+Kcomp+[L]t+[I]t−[R]t)×(Kcomp×([L]t−[R]t)+Klig×([I]t−[R]t)+Klig×Kcomp)−27×(−1×Klig×Kcomp×[R]t))/(2×((((Klig+Kcomp+[L]t+[I]t−[R]t)^2−3×(Kcomp×([L]t−[R]t)+Klig×([I]t−[R]t)+Klig×Kcomp))^3)^0.5)))/3))−(Klig+Kcomp+[L]t+[I]t−[R]t)))/((3×Klig)+((2×((Klig+Kcomp+[L]t+[I]t−[R]t)^2−3×(Kcomp×([L]t−[R]t)+Klig×([I]t−[R]t)+Klig×Kcomp))^0.5×COS(ARCCOS((−2×(Klig+Kcomp+[L]t+[I]t−[R]t)^3+9×(Klig+Kcomp+[L]t+[I]t−[R]t)×(Kcomp×([L]t−[R]t)+Klig×([I]t−[R]t)+Klig×Kcomp)−27×(−1×Klig×Kcomp×[R]t))/(2×((((Klig+Kcomp+[L]t+[I]t−[R]t)^2−3×(Kcomp×([L]t−[R]t)+Klig×([I]t−[R]t)+Klig×Kcomp))^3)^0.5)))/3))−(Klig+Kcomp+[L]t+[I]t−[R]t)))+Amin
(§8) In this equation Klig and Kcomp stand for the Kd values of the used tracer or competing inhibitor, [I]t is referring to the total concentration of the titrated inhibitor.
On the technique in general: Polarisation of emitted light reports the rotation of a fluorescent probe.

In a further experiment the target is T2, FKBP51 (Homo sapiens, UniProt Q13451).
T2 sequence (Q13451 42-130 limits assumed): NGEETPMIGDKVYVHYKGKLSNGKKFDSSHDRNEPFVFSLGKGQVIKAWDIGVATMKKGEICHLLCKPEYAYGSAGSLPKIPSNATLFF
The experiment can be described thus: Fluorescence polarization (FP) assay, binding to the FK506-binding domain of FKBP51. To be noted: FK506-binding domain of FKBP51 (FKBP51FK1), competition with fluorescent ligand 2b. The procedure: as §1, §2, §3, §4, §5, §6, §7, §8

With `C=CC1CN(Cc2ccccn2)C(=O)C2CCCC1N2S(=O)(=O)c1cc(Br)cc(C(=O)OC)c1` (stereo in doubt) [Compound K24, methyl 3-bromo-5-(((1S,5R,6R)-2-oxo-3-(pyridin-2-ylmethyl)-5-vinyl-3,10-diazabicyclo[4.3.1]decan-10-yl)sulfonyl)benzoate], the Ki at FKBP52 and on FKBP51 was not above 100 nM each time.

`COCCN1C[C@H](C=O)[C@H]2CCC[C@@H](C1=O)N2S(=O)(=O)c1cc(Cl)cc(Cl)c1` [Compound B9, (1S,5S,6R)-10-((3,5-dichlorophenyl)sulfonyl)-3-(2-methoxyethyl)-2-oxo-3,10-diazabicyclo[4.3.1]decane-5-carbaldehyde]: the Ki at FKBP52 and on FKBP51 was 100 to 500 nM throughout.

Consider `C=C[C@@H]1CN(Cc2ccccn2)C(=O)[C@@H]2CCC[C@H]1N2S(=O)(=O)c1ccc(-c2ccccc2)nc1` [Compound K27, (1S,5R,6R)-10-((6-phenylpyridin-3-yl)sulfonyl)-3-(pyridin-2-ylmethyl)-5-vinyl-3,10-diazabicyclo[4.3.1]decan-2-one], for which the inhibition constant (Ki) on FKBP52 and on FKBP51 was 100 to 500 nM each time.

As to `COC[C@H]1CN(Cc2cnnn2S(=O)(=O)c2ccccc2)C(=O)[C@@H]2CCC[C@H]1N2S(=O)(=O)c1cccc(F)c1` [Compound N32, (1S,5S,6R)-10-((3-fluorophenyl)sulfonyl)-5-(methoxymethyl)-3-((1-(phenylsulfonyl)-1H-1,2,3-triazol-5-yl)methyl)-3,10-diazabicyclo[4.3.1]decan-2-one], the Ki at FKBP52 and on FKBP51 was 100 to 500 nM in each case.

As to `C=CC1CN(Cc2cnccn2)C(=O)C2CCCC1N2S(=O)(=O)c1cc(Cl)cc(Cl)c1` (stereo in doubt) [Compound J14, (1S,5R,6R)-10-((3,5-dichlorophenyl)sulfonyl)-3-(pyrazin-2-ylmethyl)-5-vinyl-3,10-diazabicyclo[4.3.1]decan-2-one], the inhibitory constant (Ki) at FKBP52 and on FKBP51 was 100 to 500 nM each time.

For the compound `COCCCN1CC(CO)C2CCCC(C1=O)N2S(=O)(=O)c1cc(Cl)cc(Cl)c1` (stereo in doubt) [Compound J6, (1S,5R,6R)-10-((3,5-dichlorophenyl)sulfonyl)-5-(hydroxymethyl)-3-(3-methoxypropyl)-3,10-diazabicyclo[4.3.1]decan-2-one], the Ki fell in the range of 500 to 1000 nM at FKBP52 and 100 to 500 nM at FKBP51.

Consider `O=C1NC[C@@H](O)[C@H]2CCC[C@@H]1N2S(=O)(=O)c1cc(Cl)cc(Cl)c1` [Compound H1.4, (1S,5R,6R)-10-((3,5-dichlorophenyl)sulfonyl)-5-hydroxy-3,10-diazabicyclo[4.3.1]decan-2-one], for which the Ki at FKBP52 and on FKBP51 was 1000 to 5000 nM each time.

Turning to `C=CC1CN(Cc2ccccn2)C(=O)C2CCCC1N2S(=O)(=O)c1ccc2c(c1)CCO2` (stereo in doubt) [Compound K12, (1S,5R,6R)-10-((2,3-dihydrobenzofuran-5-yl)sulfonyl)-3-(pyridin-2-ylmethyl)-5-vinyl-3,10-diazabicyclo[4.3.1]decan-2-one], the Ki at FKBP52 and on FKBP51 was 500 to 1000 nM throughout.

For `N[C@@H]1CNC(=O)[C@@H]2CCC[C@H]1N2S(=O)(=O)c1cc(Cl)cc(Cl)c1` [Compound H1.2, (1S,5R,6R)-5-amino-10-((3,5-dichlorophenyl)sulfonyl)-3,10-diazabicyclo[4.3.1]decan-2-one], the Ki on FKBP52 and at FKBP51 was 1000 to 5000 nM in each case.

In the case of `C#CCN1C[C@H](COC)[C@H]2CCC[C@@H](C1=O)N2S(=O)(=O)c1ccc(-c2ncccn2)cc1` [Compound N15, (1S,5S,6R)-5-(methoxymethyl)-3-(prop-2-yn-1-yl)-10-((4-(pyrimidin-2-yl)phenyl)sulfonyl)-3,10-diazabicyclo[4.3.1]decan-2-one], the Ki at FKBP52 and at FKBP51 was 100 to 500 nM each time.

For `COc1ccc(OCCN2C[C@H](O)[C@H]3CCC[C@@H](C2=O)N3S(=O)(=O)c2cc(Cl)cc(Cl)c2)cc1OC` [Compound H2.3, (1S,5S,6R)-10-((3,5-dichlorophenyl)sulfonyl)-3-(2-(3,4-dimethoxyphenoxy)ethyl)-5-hydroxy-3,10-diazabicyclo[4.3.1]decan-2-one], the values for the Ki at FKBP52 and at FKBP51 were 100 to 500 nM and not above 100 nM, respectively.

Take `COc1ccc(OCCN2C[C@H](C[C@H](C)O)C3CCCC(C2=O)N3S(=O)(=O)c2cc(Cl)cc(Cl)c2)cc1OC` (single isomer, unassigned) [Compound D5]: the Ki on FKBP52 and on FKBP51 was not above 100 nM throughout.

On to `C=C[C@@H]1CN(Cc2ccccn2)C(=O)[C@@H]2CCC[C@H]1N2S(=O)(=O)c1cc(Cl)cc(C(=O)OC)c1` [Compound K25, methyl 3-chloro-5-(((1S,5R,6R)-2-oxo-3-(pyridin-2-ylmethyl)-5-vinyl-3,10-diazabicyclo[4.3.1]decan-10-yl)sulfonyl)benzoate], for which the Ki at FKBP52 and on FKBP51 was not above 100 nM throughout.

Take `C=C[C@@H]1CN(Cc2ccccn2)C(=O)[C@@H]2CCC[C@H]1N2S(=O)(=O)c1cc(Cl)c(O)c(Cl)c1` [Compound K8, (1S,5R,6R)-10-((3,5-dichloro-4-hydroxyphenyl)sulfonyl)-3-(pyridin-2-ylmethyl)-5-vinyl-3,10-diazabicyclo[4.3.1]decan-2-one]: the Ki at FKBP52 and on FKBP51 was 100 to 500 nM each time.

As for `C=C[C@@H]1CN(Cc2ccccn2)C(=O)[C@@H]2CCC[C@H]1N2S(=O)(=O)c1cccc(C#N)c1` [Compound K7, 3-(((1S,5R,6R)-2-oxo-3-(pyridin-2-ylmethyl)-5-vinyl-3,10-diazabicyclo[4.3.1]decan-10-yl)sulfonyl)benzonitrile], the Ki on FKBP52 and on FKBP51 was 100 to 500 nM in each case.

`C=CC1CN(Cc2ccccn2)C(=O)C2CCCC1N2S(=O)(=O)c1cccnc1` (stereo in doubt) [Compound K26, (1S,5R,6R)-3-(pyridin-2-ylmethyl)-10-(pyridin-3-ylsulfonyl)-5-vinyl-3,10-diazabicyclo[4.3.1]decan-2-one]: the Ki on FKBP52 and on FKBP51 was 100 to 500 nM each time.

Regarding `COc1ccc(OCCN2CCC3CCCC(C2=O)N3S(=O)(=O)c2cc(Cl)c(O)c(Cl)c2)cc1OC` (centres unmarked) [Ref. 3, reference compound], the Ki at FKBP52 and at FKBP51 was 1000 to 5000 nM each time.

For `COCCN1C[C@H]([C@H](C)O)[C@H]2CCC[C@@H](C1=O)N2S(=O)(=O)c1cc(Cl)cc(Cl)c1` [Compound B7, (1S,5S,6R)-10-((3,5-dichlorophenyl)sulfonyl)-5-((S)-1-hydroxyethyl)-3-(2-methoxyethyl)-3,10-diazabicyclo[4.3.1]decan-2-one], the Ki on FKBP52 and at FKBP51 was not above 100 nM throughout.

On to `C=CC1CN(Cc2ccccn2)C(=O)C2CCCC1N2S(=O)(=O)c1cccc(C(N)=O)c1` (stereo in doubt) [Compound K17, 3-(((1S,5R,6R)-2-oxo-3-(pyridin-2-ylmethyl)-5-vinyl-3,10-diazabicyclo[4.3.1]decan-10-yl)sulfonyl)benzamide], for which the Ki at FKBP52 and on FKBP51 was 100 to 500 nM each time.
